Some test systems named below: DU-145 prostate; HCT-116 colon; HOP-62 NSCLC; HS 578T breast; MALME-3M melanoma; NCI-H460 lung; NCI/ADR-RES ovarian; SK-MEL-2 melanoma; SNB-19 CNS; UACC-257 melanoma; LOX IMVI melanoma.
What all share (assay): DTP human tumour cell line panel, 48 h

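1) Cells in 96-well plates. 2) Compound, 48 h, 5 concentrations. 3) Linear interpolation between surrounding doses. 4) Unreached endpoint = highest concentration. TGI denotes the concentration required for complete inhibition of growth.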

The term TGI denotes the concentration giving total growth inhibition. High values mean lower sensitivity of the cells, low ones greater sensitivity of the cells. On to `N#Cc1ccc(/C=N/NC(=O)CSCC(=O)N/N=C/c2ccc(C#N)cc2)cc1`, for which the TGI in the experiment on DU-145 prostate, with HCT-116 colon, with HOP-62 NSCLC, in the experiment on HS 578T breast, in the experiment with MALME-3M melanoma and in the experiment on NCI-H460 lung was greater than 100 µM in each case. The TGI with NCI/ADR-RES ovarian, with SK-MEL-2 melanoma, in the experiment on SNB-19 CNS and with UACC-257 melanoma was greater than 100 µM each time.
On to `O=c1c2ncn(C3CCCCO3)c2n(-c2ccccc2)c(=S)n1-c1ccccc1` (configuration not stated), for which the TGI with DU-145 prostate was greater than 100 µM; in the experiment with HCT-116 colon it was greater than 100 µM; in the experiment on HOP-62 NSCLC, 29.9 µM; in the experiment on HS 578T breast it was 53.6 µM; in the experiment with LOX IMVI melanoma, greater than 100 µM; in the experiment on MALME-3M melanoma it was greater than 100 µM. In addition, the TGI is greater than 100 µM in the experiment with NCI-H460 lung; greater than 82.6 µM in the experiment on NCI/ADR-RES ovarian; greater than 79.7 µM in the experiment on SK-MEL-2 melanoma; greater than 69.4 µM with SNB-19 CNS; greater than 100 µM with UACC-257 melanoma.
On to `CC(=O)[C@H]1CC[C@H]2[C@@H]3CCC4=CC(=O)CC[C@]4(C)[C@H]3CC[C@]12C`, for which the TGI in the experiment with DU-145 prostate is 94.3 µM; with HCT-116 colon, 28.5 µM; with HOP-62 NSCLC, 45.4 µM; in the experiment with HS 578T breast, 19.7 µM; in the experiment on LOX IMVI melanoma, 33.3 µM; with MALME-3M melanoma, 35.8 µM. In addition, the TGI in the experiment on NCI-H460 lung is 42.4 µM; in the experiment with NCI/ADR-RES ovarian it was 31.3 µM; in the experiment with SK-MEL-2 melanoma, 44.3 µM; with SNB-19 CNS it was greater than 100 µM; in the experiment on UACC-257 melanoma it was 27.2 µM.
Take `Cc1ccc2ccc(=O)oc2c1`: the TGI in the experiment on DU-145 prostate, in the experiment with HCT-116 colon, in the experiment on HOP-62 NSCLC, with HS 578T breast, in the experiment on LOX IMVI melanoma and with MALME-3M melanoma was greater than 100 µM each time. In addition, the TGI in the experiment with NCI-H460 lung, in the experiment with NCI/ADR-RES ovarian, in the experiment on SK-MEL-2 melanoma and in the experiment with UACC-257 melanoma was greater than 100 µM throughout.
Turning to `COc1ccc(OC)c(C(=O)/C=C/c2cc(O)c(O)cc2F)c1`, the concentration for total growth inhibition (TGI) with DU-145 prostate was 15.1 µM; with HCT-116 colon, 11.5 µM; in the experiment with HOP-62 NSCLC, 29.2 µM; in the experiment with HS 578T breast it was greater than 100 µM; in the experiment on LOX IMVI melanoma, 16.1 µM; with MALME-3M melanoma, 27.4 µM. Also, the TGI is 9.27 µM in the experiment with NCI-H460 lung; greater than 89.5 µM with NCI/ADR-RES ovarian; 9.51 µM in the experiment on SK-MEL-2 melanoma; greater than 35 µM in the experiment with SNB-19 CNS; 18.3 µM in the experiment with UACC-257 melanoma.
For the compound `O=S(=O)(O)c1ccc2c(N=Nc3ccccc3)c(O)c(S(=O)(=O)O)cc2c1`, the TGI in the experiment with DU-145 prostate, in the experiment with HCT-116 colon, in the experiment with HOP-62 NSCLC, in the experiment on HS 578T breast, in the experiment on MALME-3M melanoma and with NCI-H460 lung was greater than 100 µM each time. The TGI with NCI/ADR-RES ovarian, with SK-MEL-2 melanoma, in the experiment on SNB-19 CNS and with UACC-257 melanoma was greater than 100 µM throughout.
For `CN1c2ccccc2C(=O)NC12CCN(Cc1ccccc1)CC2`, the TGI with DU-145 prostate, with HCT-116 colon, in the experiment on HOP-62 NSCLC, with HS 578T breast, with LOX IMVI melanoma and with MALME-3M melanoma was greater than 100 µM each time. Besides, the TGI in the experiment on NCI-H460 lung, in the experiment with NCI/ADR-RES ovarian, in the experiment with SNB-19 CNS and in the experiment with UACC-257 melanoma was greater than 100 µM each time.
As to `O=C(O)CCC(C(=O)O)N1C(=O)c2ccccc2C1=O` (configuration not stated), the TGI with DU-145 prostate, in the experiment on HCT-116 colon, with HOP-62 NSCLC, in the experiment with HS 578T breast, in the experiment on LOX IMVI melanoma and in the experiment on MALME-3M melanoma was greater than 100 µM each time. For the same compound, the concentration for total growth inhibition (TGI) with NCI-H460 lung, in the experiment on NCI/ADR-RES ovarian, in the experiment on SK-MEL-2 melanoma, in the experiment on SNB-19 CNS and with UACC-257 melanoma was greater than 100 µM in each case.
Take `O=c1[nH]c2nccnc2c2c([N+](=O)[O-])cccc12`: the TGI in the experiment on DU-145 prostate, with HCT-116 colon, with HOP-62 NSCLC, in the experiment on HS 578T breast, in the experiment with LOX IMVI melanoma and with MALME-3M melanoma was greater than 100 µM in each case. The TGI in the experiment with NCI-H460 lung, with NCI/ADR-RES ovarian, in the experiment with SK-MEL-2 melanoma and in the experiment on SNB-19 CNS was greater than 100 µM each time.
Consider `CCOC(=O)CN=C1Nc2ccccc2C(=O)N2CSCC12` (configuration not stated), for which the TGI with DU-145 prostate, in the experiment with HCT-116 colon, in the experiment with HOP-62 NSCLC, with HS 578T breast, in the experiment with LOX IMVI melanoma and in the experiment with MALME-3M melanoma was greater than 100 µM in each case. Besides, the TGI with NCI-H460 lung, in the experiment with NCI/ADR-RES ovarian, in the experiment on SK-MEL-2 melanoma, in the experiment on SNB-19 CNS and in the experiment with UACC-257 melanoma was greater than 100 µM in each case.
Regarding `COc1ccc(C2c3cc4c(cc3OC(NNC(N)=O)C2C)OCO4)cc1` (configuration not stated), the TGI in the experiment on DU-145 prostate is greater than 100 µM; with HCT-116 colon, 21.5 µM; in the experiment with HOP-62 NSCLC it was greater than 54.4 µM; in the experiment with HS 578T breast, greater than 100 µM; in the experiment on LOX IMVI melanoma, greater than 100 µM; in the experiment with MALME-3M melanoma it was greater than 100 µM. The total growth inhibition concentration (TGI) with NCI-H460 lung was 98.9 µM; with NCI/ADR-RES ovarian, greater than 100 µM; in the experiment on SK-MEL-2 melanoma it was greater than 100 µM; with SNB-19 CNS, greater than 100 µM; in the experiment with UACC-257 melanoma it was greater than 100 µM.
With `Cc1c(NC(=S)N/N=C\C(=N/NC(=S)Nc2c(C)n(C)n(-c3ccccc3)c2=O)c2ccccc2)c(=O)n(-c2ccccc2)n1C`, the TGI in the experiment with DU-145 prostate, with HCT-116 colon, in the experiment on HOP-62 NSCLC, with HS 578T breast, with MALME-3M melanoma and in the experiment on NCI-H460 lung was greater than 100 µM each time. Moreover, the TGI in the experiment on NCI/ADR-RES ovarian, in the experiment with SK-MEL-2 melanoma, with SNB-19 CNS and with UACC-257 melanoma was greater than 100 µM throughout.
For `CC(=O)OC(CC(C)C)P1(=O)N(CC(C)(C)C)[C@@H]2CCCC[C@H]2N1CC(C)(C)C` (some centres not stated), the TGI with DU-145 prostate amounted to 29.4 µM; in the experiment with HCT-116 colon, 16.2 µM; in the experiment with HOP-62 NSCLC, 29.9 µM; in the experiment on HS 578T breast it was 25.3 µM; in the experiment with LOX IMVI melanoma it was 25 µM; in the experiment on MALME-3M melanoma, 22.8 µM. The TGI in the experiment with NCI-H460 lung was found to be 22 µM; in the experiment with NCI/ADR-RES ovarian it was 22.6 µM; in the experiment on SK-MEL-2 melanoma, 19.6 µM; with SNB-19 CNS, 21.9 µM; in the experiment with UACC-257 melanoma, 21.4 µM.
